Test results: the NIST ThermoML archive (doi:10.1016/j.jct.2013.04.003)
± gives the expanded uncertainty stated by the source.

conditions: 313.15 K; Liquid; Closed cell (Static) method

Compound | vapor or sublimation pressure [kPa]
CC(C)CC(C)(C)C [2,2,4-trimethylpentane] | 12.95 ± 0.031
CCCCO [butan-1-ol] | 2.483 ± 0.015
C=CCCCC [hex-1-ene] | 44.98 ± 0.2
